From patent US20260028552A1, “Cationic Surfactants with Improved pH Stability and Their Use” (Locus Solutions IPCo, LLC, priority 2022, published 2026)
Entries after “also recorded” stand apart in the source; their conditions may differ.

Tests used:
[1] = base-catalyzed hydrolysis of the ester, lactam formation; listed as LAE; cited from earlier work
Salmonella enterica (G−) = experiment: Microbial kill study (log reduction), Salmonella enterica; format: cell-based; details: for Log Reduction S. enterica (G−) 100 ppm 0 min / Log Reduction S. enterica (G−) 100 ppm 2 min / Log Reduction S. enterica (G−) 100 ppm 5 min / Activity Reduction S. enterica (G−) 100 ppm 5 min: pH 7, 100 ppm; for Activity Reduction S. enterica (G−) 100 ppm 5 min: day 4 accelerated stability vs day 0
Procedure: (§1) Studies were conducted to determine the antimicrobial capabilities of cationic arginine derivatized surfactants produced according to embodiments of the subject invention.
(§2) The test organisms were a mixture of Gram-negative and Gram-positive organisms, which served to validate the breadth of the spectrum of control and the utility of the technology for common pathogens of public health concern: Pseudomonas aeruginosa (Gram-negative), Staphylococcus aureus (Gram-positive) and Salmonella entericus (Gram-negative).
(§3) Test bacteria were grown at 32° C. for 24-48 hours in tryptic soy broth, then plated at a starting concentration of 10^7. PBS was used for dilution to achieve the desired cell concentration.
(§4) A stock solution of each antimicrobial treatment was created in water, which was then used to create each desired dilution for treatment: 25, 50, 200, 400, 500, 750, 1,000, 1,500, 2,000 and 4,000 ppm, in an appropriate volume of buffer. Buffers included 100 mM of citric acid, ammonium HCL, PBS or sodium bicarbonate.
(§5) The created cell dilution of 10^7 CFU/mL was mixed with either 100 uL to 900 uL of antimicrobial at the appropriate PPM, or 1-9 mL of antimicrobial at the appropriate PPM. The final concentration of the organism was […] once mixed with the antimicrobial.
(§6) The moment the organism was added to the antimicrobial, the timer was started for the desired time period (0, 2, 5, 6 or 10 min). At the end of the timer, the antimicrobial was neutralized, and dilutions were then plated onto TSA plates and incubated for 24-48 hours at 32° C.
(§7) The negative control comprised 0.1 mL from the organism stock plated onto a TSA plate. For the positive control a serial dilution was set up with a starting concentration of 400 PPM quaternary ammonium compound (QAC) and organism. Dilutions were plated at 10^2, 10^3 and 10^4 CFU/mL.
(§8) After 24 to 48 hours of incubation, plates were removed from the incubator and colony numbers were counted.
(§9) The below scale is commonly used in determining a compound's efficacy, where a greater than or equal to 6-fold logarithmic (≥6 log) reduction in less than 10 minutes is needed for disinfection.
(§10) Table 3 summarizes surface tension reduction at 1000 ppm and log reduction of S. aureus and S. enterica at 0 and 10 min. (200 ppm) for four categories of cationic amino alcohol surfactants according to embodiments of the subject invention.
(§11) Tables 4-5 summarize the pH stability over 4 days for a C12 cationic amino alcohol surfactant according to embodiments of the subject invention, LRO (RO), compared with LAE (RE), where LRO was produced through the coupling of a lauroyl chloride substrate and arginine ethyl ester. Log reductions were measured according to the procedures described above in Example 2.

[2] = tested on: Staphylococcus aureus (G+); experiment: Microbial kill study (log reduction), Staphylococcus aureus; format: cell-based; details: for Log Reduction S. aureus (G+) 100 ppm 0 min / Log Reduction S. aureus (G+) 100 ppm 2 min / Log Reduction S. aureus (G+) 100 ppm 5 min / Activity Reduction S. aureus (G+) 100 ppm 5 min: pH 7, 100 ppm; for Activity Reduction S. aureus (G+) 100 ppm 5 min: day 4 accelerated stability vs day 0
Procedure: as §1, §2, §3, §4, §5, §6, §7, §8, §9, §10, §11

[3] = tested on: Pseudomonas aeruginosa (G−); experiment: Microbial kill study (log reduction), Pseudomonas aeruginosa; format: cell-based; details: P. aeruginosa
Procedure: as §1, §2, §3, §4
The created cell dilution of 10^7 CFU/mL was mixed with either 100 uL to 900 uL of antimicrobial at the appropriate PPM, or 1-9 mL of antimicrobial at the appropriate PPM. The final concentration of the organism was […] once mixed with the antimicrobial. […]
After 24 to 48 hours of incubation, plates were removed from the incubator and colony numbers were counted. […]

[4] = Surface tension reduction at 1000 ppm; format: physicochemical
Procedure: Table 2 summarizes surface tension reduction at 1000 ppm and log reduction of P. aeruginosa at 0 and 10 min. (200 ppm) for two C12 cationic amino alcohol surfactants according to embodiments of the subject invention, LRO (R) and LKO (K), where LRO was produced through the coupling of a lauroyl chloride substrate and arginine ethyl ester and LKO was produced through the coupling of a lauroyl chloride substrate and lysine ethyl ester.
as §10

| Compound | Log Reduction S. enterica (G−) 100 ppm 0 min (Salmonella enterica (G−); Day 0 Stability) [log] | Log Reduction S. enterica (G−) 100 ppm 2 min (Salmonella enterica (G−); Day 0 Stability) [log] | Log Reduction S. enterica (G−) 100 ppm 5 min (Salmonella enterica (G−); Day 0 Stability) [log] | Log Reduction S. enterica (G−) 100 ppm 0 min (Salmonella enterica (G−); Day 4 Accelerated Stability) [log] | Log Reduction S. enterica (G−) 100 ppm 2 min (Salmonella enterica (G−); Day 4 Accelerated Stability) [log] | Log Reduction S. enterica (G−) 100 ppm 5 min (Salmonella enterica (G−); Day 4 Accelerated Stability) [log] | Activity Reduction S. enterica (G−) 100 ppm 5 min (Salmonella enterica (G−)) [%] | Log Reduction S. aureus (G+) 100 ppm 0 min ([2]; Day 0 Stability) [log] | Log Reduction S. aureus (G+) 100 ppm 2 min ([2]; Day 0 Stability) [log] | Log Reduction S. aureus (G+) 100 ppm 5 min ([2]; Day 0 Stability) [log] | Log Reduction S. aureus (G+) 100 ppm 0 min ([2]; Day 4 Accelerated Stability) [log] | Log Reduction S. aureus (G+) 100 ppm 2 min ([2]; Day 4 Accelerated Stability) [log] | Log Reduction S. aureus (G+) 100 ppm 5 min ([2]; Day 4 Accelerated Stability) [log] | Activity Reduction S. aureus (G+) 100 ppm 5 min [2] [%] | Surface Tension 1000 ppm ([4]; 1000 ppm (Table 3)) [mN/m] | Log Reduction S. enterica (G−) 200 ppm 0 min (Salmonella enterica (G−)) [log] | Log Reduction S. enterica (G−) 200 ppm 10 min (Salmonella enterica (G−)) [log] | Log Reduction S. aureus (G+) 200 ppm 0 min [2] [log] | Log Reduction S. aureus (G+) 200 ppm 10 min [2] [log] | also measured |
| --- | --- | --- | --- | --- | --- | --- | --- | --- | --- | --- | --- | --- | --- | --- | --- | --- | --- | --- | --- | --- |
| CCCCCCCCCCCC(=O)N[C@@H](CCCN=C(N)N)C(=O)OCC [C12 R E, Ethyl lauroyl arginate, reference compound] | 0.00 | 6.42 | 6.42 | 0.00 | 0.00 | 0.00 | 100.00 | 0.00 | 6.53 | 6.53 | 0.00 | 0.93 | 1.14 | 82.54 | – | – | – | – | – | pH stability [1]: decreases at higher pH; also recorded: unstable at pH 7 or above |
| CCCCCCCCCCCC(=O)NC(CO)CCCNC(=N)N (stereo not drawn) [C12 R O, lauryl argininol alcohol] | 0.00 | 1.32 | 2.36 | 0.00 | 0.00 | 0.79 | 66.53 | 0.00 | 2.17 | 6.53 | 0.00 | 0.76 | 6.53 | 0.00 | 23.75 | 0.00 | 6.20 | 0.00 | 6.24 | Log Reduction 200 ppm 0 min ([3]; 0 min): 1.85 log; Log Reduction 200 ppm 10 min ([3]; 10 min): 6.25 log; Surface Tension 1000 ppm ([4]; 1000 ppm (Table 2)): 23.75 mN/m |
| linear sophorolipid argininol amide [SLP R O] | – | – | – | – | – | – | – | – | – | – | – | – | – | – | 41.89 | 0.00 | 0.00 | 0.00 | 2.23 | – |
